# Patent US8372971B2, “Heterocyclic compounds and methods of use” (TargeGen, Inc., priority 2004, dated 2013)
# Structures can show the parent of a compound that is named as a salt.
# Assays:
# Type in all cases: cell-based, human
# [1] = test system: p-MEK and p-ERK levels in HUVECs; assay: Western Blot, inhibition of MAPK pathway in cellular assay (Example 27); details: for Western Blot: at 5 uM, 50 ng/ml VEGF or FGF
# Protocol: (§1) Western Blot: Early passage primary human umbilical vein endothelial cells (HUVECs) were maintained in EGM-2 containing SingleQuots (Cambrex, East Rutherford, N.J.), 10% FBS, 10 mM HEPES, and 50 μg/ml gentamicin. Prior to treatment of the cells with inhibitor, the HUVECs were starved for 18 h by replacing serum-containing complete media with scrum-free and SingleQuot-free media. The starved cells were pre-treated with inhibitors for 60 min at various concentrations (0-20 μM). Next the HUVECs were treated with 50 ng/ml VEGF or FGF (Peprotech, Rocky Hill, N.J.) for 6 min and the cells were immediately washed with ice-cold PBS. Cells were lysed with ice-cold RIPA buffer containing 100 mM Tris pH 7.5, 150 mM NaCl, 1 mM EDTA, 1% deoxycholate, 1% Triton X-100, 0.1% SDS, 2 mM PMSF, one Complete-Mini protease inhibitor tablet (Roche, Indianapolis, Ind.; 1 tablet/7 ml of lysis buffer) and the phophatase inhibitors NaF (500 mM) and orthovanadate (1 mM). The cells were scraped and lysates transferred and centrifuged at 15,000 g for 10 min. Supernatants were transferred to new tubes and protein concentration was quantitated using the BCA protein reagent (Pierce, Rockford, Ill.). Cell lysates containing 20 μg of total protein were separated by 10% SDS-PAGE, transferred to nitrocellulose, and blocked in 5% milk in TBST. Anti phospho-ERK Thr 202/Tyr 204 (Cell Signaling, Beverly, Mass.), anti-phospho-MEK Ser217/221 (Cell Signaling), and c-Raf (BD Biosciences Pharmingen, San Diego, Calif.) used as primary antibodies were detected with horseradish peroxidase-conjugated goat anti-mouse or rabbit secondary antibodies and bands were visualized using the SuperSignal West Pico chemiluminescence reagent system (Pierce) and Kodak X-ray film (Rochester, N.Y.).
# HUVECs = assay: XTT cell viability assay (Example 106); details: Homo sapiens, HUVEC, 72 hours, read-out: Inhibition of HUVEC cell prolifiration (IC50)
# Protocol: Some compounds described by the general structure (B) were tested for cell viability. XTT assay: HUVECs were seeded at 10,000 cells/well of a tissue culture treated 96-well plate treated with collagen type I and grown overnight in the complete EGM-2 media as described above. The following morning, the inhibitors were serial diluted with DMSO and added to the cells with a final DMSO concentration of 1%. After 72 hours cell viability was measured with an XTT assay (Sigma, St. Louis, Mo.). The cells were also photographed to compare morphological differences to the XTT trends observed. Determination of the IC50 values was performed with quantitative software (Prism software package, GraphPad Software, San Diego Calif.).
# [2] = test system: p-MEK and p-ERK levels in HUVECs; assay: Western Blot, inhibition of MAPK pathway in cellular assay (Example 105); details: for Western Blot: 50 ng/ml VEGF or FGF
# Protocol: as §1, with “Some compounds described by the general structure (B) were tested for inhibition of MAPK pathway in cellular assay. Western” for “Western”, “serum-free” for “scrum-free”, “main.” for “min.”
# [3] = Homo sapiens, HUVEC, VEGF or FGF, read-out: reduction in p-Erk levels, IC50
SMILES,IC50 (HUVECs) [µM],Western Blot ([2]; at 5 uM),also measured
"CNC(=O)c1cc(Oc2ccc3nc(NC(=O)c4cc(C(F)(F)F)ccc4Cl)nnc3c2)ccn1 [4-[2-chloro-3-trifluoromethyl-benzoylamino)-benzo[1,2,4]triazin-7-yloxy]-pyridine-2-carboxylic acid methyl amide trifluoroacetate salt]",,,Western Blot [1]: not active at 5 uM
"O=C(Nc1ccc(OC(F)(F)F)cc1)Nc1nnc2cc(Oc3ccnc(C(=O)NCCN4CCOCC4)c3)ccc2n1 [4-{3-[3-(4-Trifluoromethoxy-phenyl)-ureido]-benzo[1,2,4]triazin-7-yloxy}-pyridine-2-carboxylic acid (2-morpholin-4-yl-ethyl)-amide]",,,Western Blot [1]: not active at 5 uM
"CN(C)C(=O)c1cc(Oc2ccc3nc(N(C)C(=O)c4ccc(OC(F)(F)F)cc4)nnc3c2)ccn1 [4-{3-[Methyl-(4-trifluoromethoxy-benzoyl)-amino]-benzo[1,2,4]triazin-7-yloxy}-pyridine-2-carboxylic acid dimethyl amide]",,,Western Blot [1]: partially active at 5 uM
"Nc1cc(Oc2ccc(-c3nnc(Nc4cccc(C(F)(F)F)c4)o3)cc2)nc(N)n1 [6-[4-(5-{[3-(trifluoromethyl)phenyl]amino}-1,3,4-oxadiazol-2-yl)phenoxy}pyrimidine-2,4-diamine]",> 10,active at 5 uM,
"O=C(Nc1nnc(-c2ccc(Oc3cccnc3)cc2)o1)c1ccc(Br)cc1 [4-Bromo-N-{5-[4-(pyridin-3-yloxy)phenyl]-1,3,4-oxadiazol-2-yl}-benzamide]",> 40,,Western Blot ([2]; at 10 uM): not active at 10 uM
"FC(F)(F)c1cccc(Nc2nnc(-c3ccc(Oc4cncnc4)cc3)o2)c1 [5-[4-(Pyrimidin-5-yloxy)phenyl]-N-[3-(trifluoromethyl)phenyl]-1,3,4-oxadiazol-2-amine]",> 10,active at 5 uM,
"CNC(=O)c1cc(Oc2ccc3nc(NS(=O)(=O)c4cc(C(F)(F)F)ccc4Cl)nnc3c2)ccn1 [4-[2-chloro-5-(trifluoromethyl-benzenesulfonylamino)-benzo[1,2,4]triazin-7-yloxy]-pyridine-2-carboxylic acid methyl amide trifluoroacetate salt]",,,Western Blot [1]: not active at 5 uM
"CNC(=O)c1cc(Oc2ccc(-c3nnc(Nc4ccc(Cl)c(C(F)(F)F)c4)o3)cc2)ccn1 [4-[4-(5-{[4-chloro-3-(trifluoromethyl)phenyl]amino}-1,3,4-oxadiazol-2-yl)phenoxy]-N-methylpyridine-2-carboxamide trifluoroacetate salt]",5.6,active at 5 uM,
"FC(F)(F)c1cc(Nc2nnc(-c3ccc(Oc4cncnc4)cc3)o2)ccc1Cl [N-[4-chloro-3-(trifluoromethyl)phenyl]-5-[4-(pyrimidin-5-yloxy)phenyl]-1,3,4-oxadiazol-2-amine trifluoroacetate salt]",9.65,active at 5 uM,
"Nc1cc(Oc2ccc(Nc3nnc(-c4ccc(Cl)c(C(F)(F)F)c4)[nH]3)cc2)nc(N)n1 [6-[4-({5-[4-chloro-3-(trifluoromethyl)phenyl-4H-1,2,4-triazol-3-yl}amino)phenoxy]pyrimidine-2,4-diamine trifluoroacetate salt]",9.57,active at 5 uM,
"O=C(Nc1nnc(-c2ccc(Oc3cccnc3)cc2)o1)c1ccc(OC(F)(F)F)cc1 [N-{5-[4-(pyridine-3-yloxy)phenyl]-1,3,4-oxadiazol-2-yl}-4-(trifluoromethoxy)benzamide]",> 40,,Western Blot ([2]; at 10 uM): not active at 10 uM
"O=C(Nc1nnc(-c2ccc(Oc3cccnc3)cc2)o1)c1cccc(OC(F)(F)F)c1 [N-{5-[4-(pyridin-3-yloxy)phenyl]-1,3,4-oxadiazol-2-yl}-3-(trifluoromethoxy)-benzamide]",> 40,,Western Blot ([2]; at 10 uM): not active at 10 uM
"Clc1ccc(Nc2nnc(-c3ccc(Oc4cncnc4)cc3)o2)cc1 [5-[4-(Pyrimidin-5-yloxy)phenyl]-N-[4-chloro-phenyl]-1,3,4-oxadiazol-2-amine]",> 20,active at 5 uM,
"N#CC(=C(/N)Sc1ccccc1N)/C(C#N)=C(\N)Sc1ccccc1N [Example U0126, reference compound]",,,"IC50 [1, 3]: 0.2 to 0.3 µM; p-MEK levels ([1]; VEGF or FGF): unaffected; IC50 [2, 3]: 0.2 to 0.3 µM; p-MEK levels ([2]; VEGF or FGF): unaffected"
"FC(F)(F)c1cc(Nc2nnc(-c3ccc(Oc4ccncc4)cc3)o2)ccc1Cl [N-[4-chloro-3-(trifluoromethyl)phenyl]-5-[4-(pyridin-4-yloxy)phenyl]-1,3,4-oxadiazol-2-amine trifluoroacetate salt]",8.6,active at 5 uM,
"Clc1cccc(Nc2nnc(-c3ccc(Oc4cncnc4)cc3)o2)c1 [5-[4-(Pyrimidin-5-yloxy)phenyl]-N-[3-chloro-phenyl]-1,3,4-oxadiazol-2-amine]",~20,active at 5 uM,
"COc1ccc(C(=O)Nc2nnc(-c3ccc(Oc4cccnc4)cc3)o2)cc1C(F)(F)F [4-methoxy-N-{5-[4-(pyridin-3-yloxy)phenyl]-1,3,4-oxadiazol-2-yl}-3-(trifluoromethyl)-benzamide]",> 40,,Western Blot ([2]; at 10 uM): active at 10 uM
"Nc1cc(Oc2ccc(-c3nnc(Nc4ccc(Cl)c(C(F)(F)F)c4)[nH]3)cc2)nc(N)n1 [6-{4-[5-(4-chloro-3-trifluoromethyl-phenylamino)-4H-[1,2,4]-triazol-3-yl]-phenoxy}-pyrimidine-2,4-diamine]",0.089,active at 5 uM,
"Nc1cc(Oc2ccc(-c3nnc(Nc4ccc(Cl)c(C(F)(F)F)c4)o3)cc2)nc(N)n1 [6-[4-(5-{[4-Chloro-3-trifluoromethyl-phenyl]amino}-1,3,4-oxadiazol-2-yl)-phenoxy]-pyrimidine-2,4-diamine]",1.57,active at 5 uM,
"FC(F)(F)c1cc(Nc2nnc(-c3ccc(Oc4cccnc4)cc3)[nH]2)ccc1Cl [(4-chloro-3-trifluoromethyl-phenyl)-{5-[4-(pyridin-3-yloxy)-phenyl]-4H-[1,2,4]triazol-3-yl}-amine]",1.81,active at 5 uM,
"Nc1cc(Oc2cccc(-c3nnc(Nc4ccc(Cl)c(C(F)(F)F)c4)[nH]3)c2)nc(N)n1 [6-{3-[5-(4-chloro-3-trifluoromethyl-phenylamino)-4H-[1,2,4]triazol-3-yl]-phenoxy}-pyrimidine-2,4-diamine trifluoroacetic acid salt]",0.404,active at 5 uM,
"FC(F)(F)c1cccc(Nc2nnc(-c3ccc(Oc4cccnc4)cc3)o2)c1 [5-[4-(Pyridin-3-yloxy)phenyl]-N-[3-trifluoromethyl-phenyl]-1,3,4-oxadiazol-2-amine]",> 20,,Western Blot ([2]; at 10 uM): active at 10 uM
